Reference: PubChem BioAssay (NCI)
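All cell lines were grown in 96-well plates and treated with compound for 48 hours. Abbreviation: GI50, concentration required for 50% inhibition of growth. At the TGI there is no net growth.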

How the values were obtained:
Assay in all cases: NCI tumour cell line growth inhibition, 48 h
T-47D breast = tested on: T-47D breast
HCT-116 colon = tested on: HCT-116 colon
TK-10 renal = tested on: TK-10 renal
SNB-19 CNS = tested on: SNB-19 CNS
NCI/ADR-RES ovarian = tested on: NCI/ADR-RES ovarian
HCC-2998 colon = tested on: HCC-2998 colon

SMILES	TGI (T-47D breast)	TGI (HCT-116 colon)	TGI (TK-10 renal)	TGI (SNB-19 CNS)	TGI (NCI/ADR-RES ovarian)	TGI (HCC-2998 colon)	GI50 (T-47D breast)	GI50 (HCT-116 colon)	GI50 (NCI/ADR-RES ovarian)
O=C1NC(N/N=C/c2ccccc2)=N/C1=C\c1cccs1	> 100 µM	36.3 µM	71.5 µM	> 87.3 µM	37.6 µM				
COc1ccc(C(=O)Cn2c(C(C)=O)nc3ccccc32)cc1	> 78.7 µM	> 100 µM	> 100 µM	> 100 µM	> 100 µM	> 100 µM			
CCN(CC)c1nc(N(C)C)c2ccc(OC)cc2n1	73.6 µM	20.1 µM	> 100 µM	70 µM	69.1 µM	26.9 µM			
CC(=O)O[C@H]1[C@H](OC(C)=O)[C@@H](CN=[N+]=[N-])OCO[C@@H]1CN=[N+]=[N-]	> 100 µM	> 100 µM	> 100 µM	> 100 µM	> 100 µM	> 100 µM			
Cn1c(=O)c2c(ncn2CCSS(=O)(=O)O)n(C)c1=O	> 100 µM	> 100 µM	> 100 µM	> 100 µM	> 100 µM				
COc1cc(C2c3[nH]c4ccc(F)cc4c3C[C@H]3COC(=O)N23)cc(OC)c1O (some centres not stated)	> 100 µM	25.5 µM		> 100 µM	> 100 µM	28.4 µM			
COc1cc(CNC(=O)[C@H](Cc2ccc(O)cn2)NC(C)=O)cc(OC)c1	> 100 µM	> 100 µM	> 100 µM	> 100 µM	> 100 µM	> 100 µM			
O=c1c[n+](-c2ccccc2)[nH]o1	> 100 µM	> 100 µM	> 100 µM	> 100 µM	> 100 µM	> 100 µM			
O=C1C=CC[C@H](/C=C/C[C@@H](O)C[C@H](O)/C=C/c2ccccc2)O1	33.3 µM	17.4 µM	24 µM	34.1 µM	65.3 µM	18.6 µM			
COc1ccccc1-c1nc2ccccc2c(=O)[nH]1	> 100 µM	> 100 µM		> 100 µM	> 100 µM	> 100 µM			
CC(C)c1ccc2c(c1)C=C1OC(=O)[C@]3(C)CCC[C@@]2(C)C13 (some centres not stated)	> 100 µM	> 100 µM	> 100 µM	> 100 µM	> 100 µM	> 100 µM			
BrCCC[P+](c1ccccc1)(c1ccccc1)c1ccccc1	36.5 µM	2.99 µM	> 100 µM	> 100 µM	> 100 µM	> 100 µM			
CCn1c(-c2ccccc2)nc2c1C(=O)c1ccccc1C2=O		63.6 µM	85.9 µM	> 100 µM	33.9 µM	51.4 µM			
OCCCCn1cc(Cn2ncc3c(SCc4ccccc4)ncnc32)nn1	> 100 µM	> 100 µM	> 100 µM	> 100 µM	> 100 µM	> 100 µM			
NC1=NN(c2ccccc2)C2(c3ccncc3C(=O)O)C1C(N)=NN2c1ccccc1 (configuration not stated)	> 100 µM	> 100 µM		> 100 µM	> 100 µM	> 100 µM			
C[C@@H]1OC(=O)C[C@H]2CC(=O)N(CCC3CN(S(=O)(=O)C(F)(F)F)c4ccc(Cc5ccc6c(c5)C(CCN5C[C@H]7[C@@H](CC(=O)O[C@H]7C)CC5=O)CN6S(=O)(=O)C(F)(F)F)cc43)C[C@@H]21 (some centres not stated)	> 100 µM	> 100 µM	> 100 µM	> 100 µM	> 100 µM	> 100 µM			
CCOC(=O)/C=C(\C(=O)OCC)n1cnc2c(N)ncnc21	14 µM	12.3 µM	17.3 µM	30 µM	37 µM	30.2 µM			
O=C(N/N=C/C=C/c1ccc([N+](=O)[O-])o1)c1ccc(Br)s1	65.5 µM	13.3 µM	46.5 µM	78.9 µM	57.4 µM				
O=C(Nc1nncs1)NS(=O)(=O)n1cnc2ccccc21	> 100 µM	> 100 µM	> 100 µM	> 100 µM	> 100 µM	> 100 µM			
COc1cc(/C=C/c2sc3ccccc3[n+]2C)ccc1N(C)C	10.8 µM	17.9 µM	32 µM	26.8 µM	> 100 µM	53.4 µM	1.36 µM	6.05 µM	> 100 µM
COC1=CC(=O)c2c(O)ccc(O)c2C1=O	41.3 µM	31.2 µM	28.3 µM	18.8 µM	60.2 µM	9.33 µM			
CCOC(=O)NC(NNc1ccc([N+](=O)[O-])cc1[N+](=O)[O-])(C(F)(F)F)C(F)(F)F	> 100 µM	> 100 µM	96 µM	> 100 µM	> 100 µM	> 100 µM			
CC(=O)N1CC[N+](C)(CCCCN2c3ccccc3Sc3cc(N=[N+]=[N-])ccc32)CC1	> 100 µM	> 100 µM	> 100 µM	> 100 µM	> 100 µM	> 100 µM			
CN(C)CCCNC(=O)c1cc(NC(=O)c2cc(NC(=O)[C@H]3C[C@@H]3C(=O)Nc3cc(C(=O)Nc4cc(C(=O)NCCCN(C)C)n(C)c4)n(C)c3)cn2C)cn1C		> 100 µM		> 100 µM	> 100 µM	> 100 µM			
O=C1OC2c3ccccc3C(=O)C2(c2ccccc2)N1c1ccccc1 (configuration not stated)	> 200 µM	> 200 µM	> 200 µM	> 200 µM	> 200 µM	> 200 µM			
O=C(Nc1ccccc1)Nn1c(-c2cccs2)nc2ccc(I)cc2c1=O	17.2 µM	> 100 µM	60.6 µM	> 100 µM	> 100 µM	55.3 µM			
c1nc(SSc2ncnc3nc[nH]c23)c2[nH]cnc2n1	> 100 µM	> 100 µM		> 100 µM	> 30.5 µM				
CC(=O)O[C@H]1[C@@H](OC2CCCC2(c2ccccc2)c2ccccc2)O[N+]([O-])=C[C@@]12COCc1cc3c(cc12)OCO3 (some centres not stated)	> 31.2 µM	> 47.5 µM	> 24.7 µM	49 µM	14.9 µM	11.9 µM			
COCC(=O)OC1CCn2c1nc1c2C(=O)C(C)=C(NC(C)=O)C1=N (configuration not stated)	6.98 µM	11.4 µM	32 µM	38.1 µM	17.6 µM	27.7 µM			
Cc1cc(N(CCC#N)CCC#N)ccc1/C(N=Nc1ccccc1)=N\NC(=O)c1ccccc1	49 µM	> 100 µM	41 µM	> 100 µM	75.5 µM	> 100 µM			
